Measurements as given in paper PMC7071032, “In Vitro Inhibition of Hsp90 Protein by Benzothiazoloquinazolinequinones Is Enhanced in The Presence of Ascorbate. A Preliminary In Vivo Antiproliferative Study” (Molecules, 2020).
Read-outs that look alike come from different tables or passages of the source.

Columns and labels:
[1] = system: panel of cancer cells (T24, DU-145, MCF-7); assay: MTT reduction assay, panel of cancer cells (means, ranges, selectivity index); assay type: cell-based, human; details: for IC50: Homo sapiens; for MSI: mean selective index: IC50 values of fibroblasts (AG 1523)/IC50 values of tumor cells (T24, DU-145, MCF-7)
Description: (§1) As positive control, two well-known anticancer drugs, namely TAM and 5-FU, were also tested on these cell lines. […] Regarding 5-FU, it is a broad-spectrum chemotherapeutic drug used to treat a variety of malignancies. Particularly, it has a long history of use against bladder tumors.
Such a selective index was calculated as the ratio between IC50 values of healthy cells/IC50 values in cancer cells.
(§2) Cells were seeded into 96-well plates at a density of 10,000 cells/well for 24 h and then incubated for 48 h with or without the quinone derivatives. […] The IC50 values were determined using the GraphPad Prism software (San Diego, CA, USA). Further incubation procedures and optical density reading of colored solutions were performed according to Benites et al..

[2] = system: non-tumor fibroblasts AG 1523; assay: MTT reduction assay, non-tumor fibroblasts; assay type: cell-based; details: Homo sapiens, AG1523, 48 h incubation, read-out: IC50 ± SEM AG 1523
Description: as §1
(§3) Cell culture conditions were the same as reported elsewhere. Briefly, cell lines were kept in DMEM containing 10% fetal calf serum. In addition, 100 U/mL of penicillin and 100 µg/mL streptomycin from Gibco (Grand Island, NY, USA) were further added. Cell cultures were kept at 37 °C under an atmosphere of 95% air/5% CO2 and 100% humidity. Sodium L-ascorbate, menadione (vitamin K3), TAM, and 5-FU were purchased from Sigma (St. Louis, MO, USA).
(§4) The cytotoxicity of the quinones was assessed by following the reduction of MTT (3-(4,5-dimethylthiazol-2-yl)-2,5-diphenyltetrazolium bromide) to formazan blue and the capability of cancer cells to proliferate, namely a clonogenic assay.
as §2

[3] = system: T24 (bladder) cells; assay: MTT reduction assay, T24 cells; assay type: cell-based; details: Homo sapiens, T-24, 48 h incubation, read-out: IC50 ± SEM T24
Description: as §1, §3, §4, §2

[4] = system: MCF-7 (breast) cells; assay: MTT reduction assay, MCF-7 cells; assay type: cell-based; details: Homo sapiens, MCF7, 48 h incubation, read-out: IC50 ± SEM MCF-7
Description: as §1, §3, §4, §2

[5] = system: DU-145 (prostate) cells; assay: MTT reduction assay, DU-145 cells; assay type: cell-based; details: Homo sapiens, DU-145, 48 h, read-out: IC50 ± SEM DU-145
Description: as §1, §3, §4, §2

[6] = system: T24 (bladder) cells; parameters: method as in doi:10.1016/j.tetlet.2015.07.034; details: MTT, data from Valderrama et al. ref 16, read-out: IC50 ± SEM T24; cited from earlier work
[7] = system: DU-145 (prostate) cells; parameters: method as in doi:10.1016/j.tetlet.2015.07.034; details: read-out: IC50 ± SEM DU-145, MTT, data from Valderrama et al. ref 16; cited from earlier work
[8] = system: MCF-7 (breast) cells; parameters: method as in doi:10.1016/j.tetlet.2015.07.034; details: MTT, data from Valderrama et al. ref 16, read-out: IC50 ± SEM MCF-7; cited from earlier work
[9] = system: T24 cells; assay: Clonogenic assay; assay type: cell-based, human; details: for cell growth compared to control conditions (100%), in brackets / number of colony forming units (CFUs): T24 cells; for number of colony forming units (CFUs): 24 h treatment, 10 days growth
Description: Indeed, at a dose of 0.25 µM, it decreased from 195 to 72 the number of CFUs. Otherwise, it inhibits the proliferation of T24 cells by 63% as compared to the control untreated cells. […] The percentages of the observed cell growth compared to control conditions (100%) are indicated in brackets. […] Cells were allowed to adhere overnight, and then treated with quinones for 24 h. Afterward, they were washed with warm PBS, given fresh medium, and allowed to grow for 10 days. Clonogenic survival was determined by fixing and staining colonies using crystal violet and further counting their number. The number of colonies calculated under control conditions was set as 100%.

[10] = read-out: mean IC50 value calculated from the individual IC50 values of the three cancer cell lines
[11] = read-out: IC50 values on the panel of cancer cells (range over cell lines)

| Compound | IC50 [3] | IC50 [4] | IC50 [5] | IC50 [1, 10] | IC50 [2] | MSI: mean selective index [1] | also measured |
| --- | --- | --- | --- | --- | --- | --- | --- |
| O=c1[nH]cc(F)c(=O)[nH]1 [5-Fluorouracil, 5-fluorouracil, reference compound] |  |  |  | 7.8 µM |  |  |  |
| CCCC1(O)C2=C(N=C3Sc4ccccc4N31)C(=O)c1ccccc1C2=O (centres unmarked) [Compound 12] |  |  |  |  | 8.82 ± 0.27 µM | 1.28 | IC50 [6]: 4.86 ± 0.5 µM; IC50 [7]: 11.6 ± 2.05 µM; IC50 [8]: 4.25 ± 0.5 µM |
| CCCC1(O)C2=C(N=C3Sc4cc(C)ccc4N31)C(=O)c1ccccc1C2=O (centres unmarked) [Compound 16] |  |  |  | 1.1 to 1.61 µM | 3.46 ± 0.08 µM | 2.62 | IC50 [6]: 1.36 ± 0.15 µM; cell growth compared to control conditions (100%), in brackets ([9]; 0.025 µM): 101%; number of colony forming units (CFUs) ([9]; 0.025 µM): 204 ± 19 CFUs; cell growth compared to control conditions (100%), in brackets ([9]; 0.125 µM): 107%; number of colony forming units (CFUs) ([9]; 0.125 µM): 216 ± 29 CFUs; cell growth compared to control conditions (100%), in brackets ([9]; 0.25 µM): 94%; number of colony forming units (CFUs) ([9]; 0.25 µM): 189 ± 12 CFUs; cell growth compared to control conditions (100%), in brackets ([9]; 1.25 µM): 39%; number of colony forming units (CFUs) ([9]; 1.25 µM): 79 ± 9 CFUs; cell growth compared to control conditions (100%), in brackets ([9]; 2.5 µM): 29%; number of colony forming units (CFUs) ([9]; 2.5 µM): 58 ± 12 CFUs; cell growth compared to control conditions (100%), in brackets ([9]; 5.0 µM): 11%; number of colony forming units (CFUs) ([9]; 5.0 µM): 23 ± 15 CFUs; IC50 [7]: 0.85 ± 0.1 µM; IC50 [1, 11]: 0.11 to 1.77 µM; IC50 [8]: 1.77 ± 0.26 µM |
| COc1ccc2c(c1)SC1=NC3=C(C(=O)c4ccccc4C3=O)C(C)(O)N12 (centres unmarked) [Compound 19] |  |  |  | 1.1 to 1.61 µM | 6.4 ± 0.46 µM | 3.97 | IC50 [6]: 1.32 ± 0.11 µM; inhibition at 0.25 µM ([9]; Homo sapiens, T-24, clonogenic assay, 0.25 µM, read-out: inhibition of the proliferation of T24 cells as compared to control untreated cells): 28%; cell growth compared to control conditions (100%), in brackets ([9]; 0.025 µM): 102%; number of colony forming units (CFUs) ([9]; 0.025 µM): 195 ± 16 CFUs; cell growth compared to control conditions (100%), in brackets ([9]; 0.125 µM): 96%; number of colony forming units (CFUs) ([9]; 0.125 µM): 183 ± 21 CFUs; cell growth compared to control conditions (100%), in brackets ([9]; 0.25 µM): 72%; number of colony forming units (CFUs) ([9]; 0.25 µM): 138 ± 18 CFUs; cell growth compared to control conditions (100%), in brackets ([9]; 1.25 µM): 36%; number of colony forming units (CFUs) ([9]; 1.25 µM): 68 ± 12 CFUs; cell growth compared to control conditions (100%), in brackets ([9]; 2.5 µM): 16%; number of colony forming units (CFUs) ([9]; 2.5 µM): 30 ± 16 CFUs; cell growth compared to control conditions (100%), in brackets ([9]; 5.0 µM): 18%; number of colony forming units (CFUs) ([9]; 5.0 µM): 35 ± 11 CFUs; IC50 [7]: 0.79 ± 0.11 µM; IC50 [1, 11]: 0.11 to 1.77 µM; IC50 [8]: 2.72 ± 0.18 µM |
| CCCC1(O)C2=C(N=C3Sc4cc(OC)ccc4N31)C(=O)c1ccccc1C2=O (centres unmarked) [Compound 20] | 1.89 ± 0.15 µM | 1.67 ± 0.12 µM | 1.13 ± 0.05 µM | 1.1 to 1.61 µM | 4.99 ± 0.59 µM | 3.17 | cell growth compared to control conditions (100%), in brackets ([9]; 0.025 µM): 96%; number of colony forming units (CFUs) ([9]; 0.025 µM): 204 ± 17 CFUs; cell growth compared to control conditions (100%), in brackets ([9]; 0.125 µM): 100%; number of colony forming units (CFUs) ([9]; 0.125 µM): 214 ± 25 CFUs; cell growth compared to control conditions (100%), in brackets ([9]; 0.25 µM): 106%; number of colony forming units (CFUs) ([9]; 0.25 µM): 225 ± 19 CFUs; cell growth compared to control conditions (100%), in brackets ([9]; 1.25 µM): 55%; number of colony forming units (CFUs) ([9]; 1.25 µM): 118 ± 22 CFUs; cell growth compared to control conditions (100%), in brackets ([9]; 2.5 µM): 42%; number of colony forming units (CFUs) ([9]; 2.5 µM): 89 ± 10 CFUs; cell growth compared to control conditions (100%), in brackets ([9]; 5.0 µM): 22%; number of colony forming units (CFUs) ([9]; 5.0 µM): 46 ± 7 CFUs; IC50 [1, 11]: 0.11 to 1.77 µM |
| O=C1C2=C(C(=O)c3ccccc31)C(O)(c1ccco1)N1C(=N2)Sc2ccccc21 (centres unmarked) [Compound 23] | 9.29 ± 0.77 µM | 8.62 ± 0.72 µM | 19.9 ± 0.5 µM | 10.5 to 12.6 µM | 21.7 ± 0.27 µM | 1.72 |  |
| COc1ccc2c(c1)SC1=NC3=C(C(=O)c4ccccc4C3=O)C(O)(c3ccco3)N12 (centres unmarked) [Compound 24] | 10.4 ± 1 µM | 11.7 ± 0.65 µM | 4.69 ± 0.33 µM |  | 90.1 ± 1.21 µM | 10.1 |  |
| O=C1C2=C(C(=O)c3ccccc31)C(O)(c1cccs1)N1C(=N2)Sc2ccccc21 (centres unmarked) [Compound 25] | 8.72 ± 0.41 µM | 7.32 ± 0.36 µM | 7.85 ± 0.6 µM |  | 12.8 ± 0.31 µM | 1.60 |  |
| O=C1C2=C(C(=O)c3ccccc31)C(O)(c1cccs1)N1C(=N2)Sc2cc(F)ccc21 (centres unmarked) [Compound 26] | 13.4 ± 2.37 µM | 7.46 ± 0.53 µM | 10.8 ± 1.01 µM | 10.5 to 12.6 µM | 19.8 ± 0.83 µM | 1.88 |  |

Continued, in another order:

| IC50 [3] | IC50 [4] | IC50 [5] | Compound | IC50 [1, 10] | IC50 [2] | MSI: mean selective index [1] | also measured |
| --- | --- | --- | --- | --- | --- | --- | --- |
| 4.65 ± 0.43 µM | 6.83 ± 1.29 µM | 9.59 ± 0.32 µM | CC1(O)C2=C(N=C3Sc4ccccc4N31)C(=O)c1ccccc1C2=O (centres unmarked) [Compound 11] |  | 10.7 ± 0.57 µM | 1.52 |  |
| 6.85 ± 0.54 µM | 5.83 ± 0.25 µM | 7.99 ± 0.17 µM | CCCCCC1(O)C2=C(N=C3Sc4ccccc4N31)C(=O)c1ccccc1C2=O (centres unmarked) [Compound 13] |  | 8.55 ± 0.35 µM | 1.24 |  |
| 8.42 ± 1.27 µM | 6.84 ± 0.79 µM | 9.04 ± 0.69 µM | CCCCCCCC1(O)C2=C(N=C3Sc4ccccc4N31)C(=O)c1ccccc1C2=O (centres unmarked) [Compound 14] |  | 7.28 ± 0.39 µM | 0.90 |  |
| 5.6 ± 0.29 µM | 7.12 ± 0.65 µM | 7.55 ± 0.69 µM | CCCCCCCC1(O)C2=C(N=C3Sc4cc(C)ccc4N31)C(=O)c1ccccc1C2=O (centres unmarked) [Compound 18] |  | 6.02 ± 0.29 µM | 0.89 |  |
| 7.09 ± 0.14 µM | 4.63 ± 0.3 µM | 7.43 ± 0.28 µM | CCCCCC1(O)C2=C(N=C3Sc4cc(OC)ccc4N31)C(=O)c1ccccc1C2=O (centres unmarked) [Compound 21] |  | 11.3 ± 1.1 µM | 1.78 |  |
| 5.95 ± 0.45 µM | 3.52 ± 0.32 µM | 6.62 ± 0.19 µM | CCCCCCCC1(O)C2=C(N=C3Sc4cc(OC)ccc4N31)C(=O)c1ccccc1C2=O (centres unmarked) [Compound 22] |  | 5.97 ± 0.24 µM | 1.11 |  |
